Reference: PMC5131886 (CPT: Pharmacometrics & Systems Pharmacology, 2016)
“And” between values parts separate entries of the source, which are not always exact repeats. Identical values can stand only once.

What was measured:
[1] = test system: plasma protein; details: cited from earlier work
[2] = test system: HCC tumors; test: Tumor volume by DCE-MRI in HCC patients; type: in vivo, human; details: duration of the trial, vs baseline
[3] = test system: hepatocellular carcinoma; details: 50 mg q.d. in 4/2 weeks schedule, advanced HCC; cited from earlier work
[4] = cited from earlier work
[5] = test system: sVEGFR2; test: PD indirect response modeling of sVEGFR2 plasma concentrations; type: in vivo, human; details: HCC patients, following treatment, mean baseline 15.7 µg/L
[6] = test system: hepatocellular carcinoma; details: phase III, HCC patients, compared to sorafenib; cited from earlier work
[7] = test system: hepatocellular carcinoma; test: Time-to-tumor progression in HCC patients; type: in vivo, human; details: 37.5 mg q.d. with TACE (doxorubicin)
[8] = Hematological toxicities in the phase II pilot study; type: in vivo, human; details: HCC patients, 37.5 mg q.d.
[9] = test system: VEGFR; details: cited from earlier work

For CCN(CC)CCNC(=O)c1c(C)[nH]c(/C=C2\C(=O)Nc3ccc(F)cc32)c1C [Sunitinib, Sunitinib malate], the “fb, bound fraction to plasma protein” value [1] is listed as 0.9, the “HCC tumor volumes under treatment” value [2] is listed as “remained relatively unchanged compared to their baseline values” and the “median TTP” value [3] is listed as 5.3 months. The “Q/Fperipheral, intercompartmental clearance (RSE%)” value ([4]; fixed to literature value) was 6.37 (18) L/h, the “V2/Fperipheral, peripheral volume of distribution (RSE%)” value ([4]; fixed to literature value) was 588 (8.7) L and the “ka, first-order absorption rate constant (RSE%)” value ([4]; fixed to literature value) was 0.195 (6.8) 1/h. The “fM, fraction of drug metabolized into the active metabolite SU12662” value ([4]; fixed) was 0.21, the “observed plasma concentrations of sVEGFR2” value [5] was “gradually decreased over time” and the “primary overall survival endpoint” value [6] was “failed its primary OS endpoint”. For the same compound, the toxicities [6] was “more frequent toxicities than sorafenib”, the “median observed TTP” value [7] was 7 months and 8 months and the hematological toxicities [8] was “absence of hematological toxicities”.
In the case of CCNCCNC(=O)c1c(C)[nH]c(/C=C2\C(=O)Nc3ccc(F)cc32)c1C [SU12662], the “fb, bound fraction to plasma protein” value [1] is listed as 0.95, the “Q/Fperipheral, intercompartmental clearance (RSE%)” value ([4]; fixed to literature value) is listed as 27.7 (26) L/h and the “V2/Fperipheral, peripheral volume of distribution (RSE%)” value ([4]; fixed to literature value) is listed as 345 (22) L. For the same compound, the “potency relative to parent drug” value [9] was “equipotent to the parent drug”.
